“And” between values parts separate entries of the source, which are not always exact repeats. Equal values may be shown once.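 Protocol summary: plate cells (96-well), add compound at 5 concentrations, incubate 48 h, interpolate endpoints linearly. GI50 = concentration required for 50% inhibition of growth. TGI marks complete inhibition of growth.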 Where a SMILES comes first, the peptide text is derived from it. [ ]: non-standard residue; d: D form. Orn = NCCC[CH](N)C(=O)O
What follows are compounds tested on MDA-MB-468 breast (assay: DTP human tumour cell line panel, 48 h).
With `C#Cc1ccc(-n2c(/C=C/c3ccc4ccccc4n3)nc3ncccc3c2=O)cc1` the GI50 was 232 nM and the TGI was 894 nM. `Cn1cc(C2=C(c3cccc(NCC(O)CO)c3)C(=O)NC2=O)c2cc(Cl)ccc21` (configuration not stated) was tested, and the GI50 was 2110 nM and the TGI was 8430 nM. In the case of `COc1cc([C@@H]2c3cc4c(cc3[C@H](O)[C@H]3COC(=O)[C@@H]23)OCO4)cc(OC)c1OC`, the GI50 is reported as 278 nM and 54.8 nM and the TGI is reported as 2870 nM and 453 nM. Work on `Fc1ccc(-c2cc3nc(C(Cl)Cl)nc(-c4ccccc4)n3n2)cc1` yielded a GI50 of 269 nM and a TGI of 869 nM. In the case of `CCOCC[P+](c1ccccc1)(c1ccccc1)c1ccccc1`, the GI50 is reported as 2620 nM and the TGI is reported as 24900 nM. For `NNc1nc(-c2ccccn2)nc2sc3c(c12)CCCCCC3`, the GI50 was 3670 nM and the TGI was 31700 nM. `CCOC(=O)c1c2c(n3cccc(F)c13)C(=O)c1ncccc1C2=O` was tested, and the GI50 was 2870 nM and the TGI was 9680 nM. `CCC1=C[C@H]2CN(CCc3c([nH]c4ccccc34)[C@@](C(=O)OC)(c3cc4c(cc3OC)N(C)[C@H]3[C@@](O)(C(=O)OC)[C@H](OC(C)=O)[C@]5(CC)[C@@H]6C[C@@H]6CN6CC[C@]43[C@@H]65)C2)C1` showed a GI50 of 14.5 nM and a TGI of 6590 nM. `COc1ccc(/C=C2\CCCC3=C2N=C2SC=NN2C3c2ccc(OC)c(OC)c2)cc1OC` (configuration not stated) gave a GI50 of 2180 nM and a TGI of 25300 nM. For `N=C1N=Nc2nc(C3(c4nc5n(c4O)C(=N)N=N5)Cc4ccccc4C3=O)c(O)n21` (configuration not stated), the GI50 was 49800 nM and the TGI was over 100000 nM. `C#Cc1cc(OC)c(C(=O)Nc2ccc(F)cc2C(=O)Nc2cccc(S(=O)(=O)C(F)(F)F)c2)cn1` was tested, and the GI50 was 1510 nM and the TGI was 3990 nM. Compound `O=C1C=CC(=O)N1CCCCCCCCCCN1C(=O)C=CC1=O` has a GI50 of 3220 nM and a TGI of 14000 nM. In the case of `O=CNc1ccc2c(c1)Cc1cc([N+](=O)[O-])ccc1-2`, the GI50 is reported as 1880 nM and the TGI is reported as over 100000 nM. With `CC(=O)/C=C/c1ccc(N(C)Cc2ccc(C(C)(C)C)cc2)cc1` the GI50 was 59700 nM and the TGI was 215000 nM. `COc1ccc2oc(-c3ccc(Cl)cc3)c(N3CCN(C)CC3)c2c1` showed a GI50 of 1660 nM and a TGI of 4310 nM. For `CCNCCNc1cc(C2CCCC2)c(C#N)c2nc3ccccc3n12`, the GI50 was 1640 nM and the TGI was 3670 nM. `O=C(Nc1cccc(-n2cc(-c3ccncc3)c(-c3ccc(O)c(Cl)c3)n2)c1)Nc1ccc(Cl)c(C(F)(F)F)c1` showed a GI50 of 2190 nM and a TGI of 6840 nM. Compound `COc1ccc2c(c1)N(CCO)C1=C(C(=O)OC1)C2c1cccc(Br)c1` (configuration not stated) has a GI50 of 28.7 nM and a TGI of 128 nM. Work on `COc1ccc(-c2oncc2-c2cc(OC)c3c(c2)OCO3)cc1` yielded a GI50 of 1350 nM and a TGI of over 29700 nM. In the case of `CCN1C(=O)N(CC)C2C1NN=C1SC(c3ccccc3)=CC(=O)N12` (configuration not stated), the GI50 is reported as 231 nM and the TGI is reported as 867 nM. `COc1cc(C2c3cc4c(cc3OC(O)C2C)OCO4)cc(OC)c1O` (configuration not stated) showed a GI50 of 10600 nM and a TGI of over 100000 nM. Work on `Clc1cccc(Cc2cn3cc(-c4ccccc4)nc3s2)c1` yielded a GI50 of 4450 nM and a TGI of over 100000 nM. `COc1ccc(/C=C/C(=O)c2ccc(NC(=O)CSc3nnc(-c4cc(OC)c(OC)c(OC)c4)o3)cc2)cc1` gave a GI50 of 2100 nM and a TGI of 5020 nM. Work on `CCCNNC(=O)c1ccc(CNC(=O)/C=C/c2ccccc2)cc1` yielded a GI50 of 311 nM and a TGI of over 31100 nM. With `O=C(Nc1ncc(Cc2ccc(Cl)cc2)s1)c1ccc2c(c1)OCCO2` the GI50 was 258 nM. For `C#CCOc1c(OC)cc(C(=O)/C(C)=C/c2cccc(N=[N+]=[N-])c2)cc1OC`, the GI50 was 85.5 nM and the TGI was over 100000 nM. Work on `O=C(Nc1cccc2ccccc12)c1cc2ccccc2cc1O` yielded a GI50 of 2450 nM and a TGI of 6330 nM. Compound `CCOC(=O)C1=C(N)Oc2cc(OC)ccc2C1c1ccc(F)c(F)c1` (configuration not stated) has a GI50 of 352 nM and a TGI of 4000 nM. `CCN(CC)CCCC(C)Nc1ccnc2cc(Cl)c(SCc3ccccc3)cc12` (configuration not stated) showed a GI50 of 1230 nM and a TGI of 2570 nM. `CN(C)CCOc1cccc(NC2=C(Cl)C(=O)C(Nc3cccc(OCCN(C)C)c3)=C(Cl)C2=O)c1` was tested, and the GI50 was 181 nM and the TGI was 358 nM. Compound `N=C(N)c1ccc(-c2ccc(-c3ccco3)o2)cc1F` has a GI50 of 1570 nM and a TGI of 3410 nM. `N=c1c2c(=O)n3c(nc2nc2sc4ccc(Cl)cc4n12)-c1ccccc1Sc1ccccc1-3` gave a GI50 of 2670 nM and a TGI of 12400 nM. In the case of `CC(C)CC1NC(=O)C(CCCN)NC(=O)C(C(C)C)NC(=O)C2CCCN2C(=O)C(Cc2ccccc2)NC(=O)C(CC(C)C)NC(=O)C(CCCN)NC(=O)C(C(C)C)NC(=O)C2CCCN2C(=O)C(Cc2ccccc2)NC1=O` (configuration not stated) (cyclo(FPV[Orn]LFPV[Orn]L); configuration not given here), the GI50 is reported as 3.94 nM and the TGI is reported as 22.2 nM and 26.8 nM. Compound `Cc1cccc2c(=O)c3c(sc12)c(NCCN)nc1ccccc13` has a GI50 of 700 nM and a TGI of 1580 nM. `COC(=O)c1cccc(NC2=C(Cl)C(=O)c3nc(C)ccc3C2=O)c1` was tested, and the GI50 was 1610 nM and the TGI was 3280 nM. `Cc1cc(Cl)ccc1Nc1nc(C(F)(F)F)ccc1C(=O)N/N=C/c1c(Cl)cccc1Cl` gave a GI50 of 274 nM and a TGI of 842 nM. `Cc1ccc(S(=O)(=O)N2C/C(=C\c3cc(F)cc(F)c3)C(=O)/C(=C/c3cc(F)cc(F)c3)C2)cc1` gave a GI50 of 385 nM and a TGI of 1760 nM. Compound `COc1cccc(-c2cc(NCc3ccc4c(c3)OCO4)nc(N)n2)c1` has a GI50 of 220 nM and a TGI of 15100 nM. `Cc1cc(Cl)ccc1Nc1nc(C(F)(F)F)ccc1C(=O)N/N=C/c1ccc(F)cc1` was tested, and the GI50 was 706 nM and the TGI was 3260 nM. For `O=C(O)c1cn(C2CC2)c2cc(N3CCN(C(=O)Nc4nc(-c5ccc(Cl)cc5)cs4)CC3)c(F)cc2c1=O`, the GI50 was 1750 nM and the TGI was 8150 nM. Work on `COC(C(=O)[C@@H](O)[C@@H](C)O)[C@@H]1Cc2cc3cc(O[C@H]4C[C@@H](O[C@H]5C[C@@H](O)[C@H](O)C(C)O5)[C@H](O)C(C)O4)c(C)c(O)c3c(O)c2C(=O)[C@H]1O[C@H]1C[C@@H](O[C@H]2C[C@@H](O[C@H]3C[C@@H](O)[C@@H](O)C(C)O3)[C@@H](O)C(C)O2)[C@H](O)C(C)O1` (some centres not stated) yielded a GI50 of 396 nM and a TGI of 4090 nM. `Cc1ccc(C2CC(c3cccc(Nc4ccncc4)c3)=NN2c2ccc(Cl)cc2)cc1` (configuration not stated) showed a GI50 of 1670 nM and a TGI of 3250 nM. Work on `CCN1CCN(Cc2ccc3cc(C(=O)Nc4cc(NC(=O)c5ccc6c(c5)OCCO6)ccc4F)ccc3n2)CC1` yielded a GI50 of 33.5 nM and a TGI of 181 nM. `Cc1ccc(S(=O)(=O)C2=C3C(=C(c4ccccc4)c4ccccc43)CN(S(=O)(=O)c3ccc(C)cc3)C2)cc1` showed a GI50 of 5010 nM and a TGI of 40600 nM.
